Key:
[1] = system: planktonic sulfate reducing bacteria (SRB); experiment: Biocide test API RP 38, sulfate reducing bacteria; format: cell-based; conditions: 4 hours contact at 37° C., growth monitored 15 days
Method: (§1) The effectiveness of the polymeric quaternary ammonium salts as a biocide was tested using the method shown in the API Recommended Practice for Biological Analysis of Subsurface Injection Waters, API RP 38, March, 1982, which is hereby fully incorporated by reference. The effectiveness of the salts as a biocide was tested using planktonic sulfate reducing bacteria (SRB), Aerobic Acid Producing Bacteria (AAPB) and Anaerobic Acid Producing (AnAP) Bacteria.
(§2) The desired concentrations of the polymeric quaternary ammonium salt biocide were added to clean sterilized bottles. Two bottles contained no biocides and served as controls. Under a N2 blanket, 10 mL of actively growing bacterial culture (24 hours old) was added to each of the bottles, and a 1 mL sample was taken and serially diluted into six bottles. The solutions were mixed well and the bottles were placed in an incubator at 37° C. for 4 hours. At the end of this period, 1 mL samples from each of the treated bottles were taken and serially diluted into 3 bottles. Samples from the control bottles were serially diluted into six bottles. All bottles were then placed in an incubator at 37° C. and bacterial growth was monitored for 15 days.

[2] = system: Aerobic Acid Producing Bacteria (AAPB); experiment: Biocide test API RP 38, aerobic acid producing bacteria; format: cell-based; conditions: 4 hours contact at 37° C., growth monitored 15 days
Method: as §1, §2

[3] = system: Anaerobic Acid Producing (AnAP) Bacteria; experiment: Biocide test API RP 38, anaerobic acid producing bacteria; format: cell-based; conditions: 4 hours contact at 37° C., growth monitored 15 days
Method: as §1, §2

[4] = Standard testing procedures for determining biodegradability
From the text: The present invention provides compositions comprising polymeric quaternary ammonium salts and methods of their use as a corrosion inhibitor and/or biocide. The polymeric quaternary ammonium salts described herein are highly biodegradable, thereby making these compositions highly desirable for use in corrosion systems that require careful consideration concerning environmental impact, such as on offshore drilling platforms. […] For purposes of comparison, sodium benzoate was about 85.5% biodegraded after 7 days, about 95% biodegraded after 14 days and 100% biodegraded after 28 days.

| SMILES | Bacterial cells/ml, sulfate reducing bacteria ([1]; dosage 31.3 ppm) | Bacterial cells/ml, sulfate reducing bacteria ([1]; dosage 62.5 ppm) | Bacterial cells/ml, Aerobic Acid Producing Bacteria (AAP) ([2]; dosage 100 ppm) | Bacterial cells/ml, Aerobic Acid Producing Bacteria (AAP) ([2]; dosage 200 ppm) | Bacterial cells/ml, Aerobic Acid Producing Bacteria (AAP) ([2]; dosage 375 ppm) | Bacterial cells/ml, Aerobic Acid Producing Bacteria (AAP) ([2]; dosage 500 ppm) | Bacterial cells/ml, Anaerobic Acid Producing (AnAP) Bacteria ([3]; dosage 31.3 ppm) | Bacterial cells/ml, Anaerobic Acid Producing (AnAP) Bacteria ([3]; dosage 62.5 ppm) | Bacterial cells/ml, Anaerobic Acid Producing (AnAP) Bacteria ([3]; dosage 125 ppm) | biodegraded ([4]; after 7 days) | biodegraded ([4]; after 14 days) | biodegraded ([4]; after 28 days) [%] |
| --- | --- | --- | --- | --- | --- | --- | --- | --- | --- | --- | --- | --- |
| O=CCCCC=O [Glutaraldehyde] | 10^1 cells/ml | 0^ cells/ml | ≧10^3 cells/ml | ≧10^3 cells/ml | 10^2 cells/ml | 10^1 cells/ml | 10^2 cells/ml | ≧10^3 cells/ml | ≧10^3 cells/ml | – | – | – |
| O=C([O-])c1ccccc1.[Na+] [sodium benzoate] | – | – | – | – | – | – | – | – | – | about 85.5% | about 95% | 100 |

— US20060062753A1, “Polymeric quaternary ammonium salts useful as corrosion inhibitors and biocides” (priority 2004, published 2006)
